Data published in PMC6900016, “Synthesis of Indomorphan Pseudo‐Natural Product Inhibitors of Glucose Transporters GLUT‐1 and ‐3” (Angewandte Chemie (International Ed. in English), 2019).

Legend:
Test in all cases: cells
Set-up in all cases: Cell growth inhibition, sulforhodamine B total protein staining
MDAMB231 = details: Homo sapiens, MDA-MB-231; 72 h growth; read-out: Cell growth inhibition IC50/µM
Method in brief: (§1)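 72 h exposure of a 94-cell-line panel to Glupin; growth measured by sulforhodamine B total-protein staining after TCA fixation (10% adherent, 50% suspension/semi-adherent, 1 h at 4 °C). IC50 derived from growth inhibition.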

T24 = details: Homo sapiens, T-24; 72 h growth; read-out: Cell growth inhibition IC50/µM
Method in brief: as §1

PANC1005 = details: Homo sapiens, Panc1005; 72 h growth; read-out: Cell growth inhibition IC50/µM
Method in brief: as §1

EJ28 = details: Homo sapiens, EJ-28; 72 h growth; read-out: Cell growth inhibition IC50/µM
Method in brief: as §1

CLS439 = details: 72 h growth; read-out: Cell growth inhibition IC50/µM
Method in brief: as §1

MV411 = details: Homo sapiens, MV4-11; 72 h growth; read-out: Cell growth inhibition IC50/µM
Method in brief: as §1

UO31 = details: Homo sapiens, UO-31; 72 h growth; read-out: Cell growth inhibition IC50/µM
Method in brief: as §1

KASUMI1 = details: Homo sapiens, Kasumi 1; 72 h growth; read-out: Cell growth inhibition IC50/µM
Method in brief: as §1

22RV1 = details: Homo sapiens, 22Rv1; 72 h growth; read-out: Cell growth inhibition IC50/µM
Method in brief: as §1

JEG3 = details: Homo sapiens, JEG-3; 72 h growth; read-out: Cell growth inhibition IC50/µM
Method in brief: as §1

5637 = details: 72 h growth; read-out: Cell growth inhibition IC50/µM
Method in brief: as §1

SKOV3 = details: Homo sapiens, SK-OV-3; 72 h growth; read-out: Cell growth inhibition IC50/µM
Method in brief: as §1

PLCPRF5 = details: Homo sapiens, PLC-PRF-5; 72 h growth; read-out: Cell growth inhibition IC50/µM
Method in brief: as §1

MCF7 = details: Homo sapiens, MCF7; 72 h growth; read-out: Cell growth inhibition IC50/µM
Method in brief: as §1

HELA = details: Homo sapiens, HeLa; 72 h growth; read-out: Cell growth inhibition IC50/µM
Method in brief: as §1

SKBR3 = details: Homo sapiens, SK-BR-3; 72 h growth; read-out: Cell growth inhibition IC50/µM
Method in brief: as §1

RAMOS = details: Homo sapiens, Ramos; 72 h growth; read-out: Cell growth inhibition IC50/µM
Method in brief: as §1

786O = details: Homo sapiens, 786-0; 72 h growth; read-out: Cell growth inhibition IC50/µM
Method in brief: as §1

MDAMB436 = details: Homo sapiens, MDA-MB-436; 72 h growth; read-out: Cell growth inhibition IC50/µM
Method in brief: as §1

A431 = details: Homo sapiens, A-431; 72 h growth; read-out: Cell growth inhibition IC50/µM
Method in brief: as §1

EFO21 = details: Homo sapiens, EFO-21; 72 h growth; read-out: Cell growth inhibition IC50/µM
Method in brief: as §1

MHHES1 = details: Homo sapiens, MHH-ES-1; 72 h growth; read-out: Cell growth inhibition IC50/µM
Method in brief: as §1

SUDHL10 = details: Homo sapiens, SU-DHL10; 72 h growth; read-out: Cell growth inhibition IC50/µM
Method in brief: as §1

## CCOC(=O)Cn1c2c(c3ccccc31)C[C@@H]1C[C@H]2C(OC)CN1C(=O)c1cccnc1SC (single isomer, unassigned; (+)) [(+)-5a, Glupin]
MDAMB231
  IC50: 8.38 µM
T24
  IC50: 0.243 µM
PANC1005
  IC50: 0.269 µM
EJ28
  IC50: 1.39 µM
CLS439
  IC50: 0.24 µM
MV411
  IC50: > 30 µM
UO31
  IC50: 0.109 µM
KASUMI1
  IC50: > 30 µM
22RV1
  IC50: 5.57 µM
JEG3
  IC50: 0.933 µM
5637
  IC50: 0.114 µM
SKOV3
  IC50: 6.07 µM
PLCPRF5
  IC50: > 30 µM
MCF7
  IC50: > 30 µM
HELA
  IC50: 1.25 µM
SKBR3
  IC50: > 30 µM
RAMOS
  IC50: 0.212 µM
786O
  IC50: 0.274 µM
MDAMB436
  IC50: 11.1 µM
A431
  IC50: 0.23 µM
EFO21
  IC50: > 30 µM
MHHES1
  IC50: 1.49 µM
SUDHL10
  IC50: 0.219 µM
